Laboratory results from PMC3163566, “Combined analysis of transcriptome and metabolite data reveals extensive differences between black and brown nearly-isogenic soybean (Glycine max) seed coats enabling the identification of pigment isogenes” (BMC Genomics, 2011).

What was measured:
[1] = target: T1, UGT78K2 (Glycine max, UniProt G0WMC8); test: HPLC-DAD and HPLC-MS/MS product detection; type: biochemical; conditions: glucose acceptor; 5 mM UDP-glucose; 30 °C, 5 min; product cyanidin-3-O-glucoside
T1 construct: full-length CDS, N-terminal His6 tag (pET-14b), E. coli BL21(DE3) pLysS, IMAC purified
T1 sequence (G0WMC8 1-447): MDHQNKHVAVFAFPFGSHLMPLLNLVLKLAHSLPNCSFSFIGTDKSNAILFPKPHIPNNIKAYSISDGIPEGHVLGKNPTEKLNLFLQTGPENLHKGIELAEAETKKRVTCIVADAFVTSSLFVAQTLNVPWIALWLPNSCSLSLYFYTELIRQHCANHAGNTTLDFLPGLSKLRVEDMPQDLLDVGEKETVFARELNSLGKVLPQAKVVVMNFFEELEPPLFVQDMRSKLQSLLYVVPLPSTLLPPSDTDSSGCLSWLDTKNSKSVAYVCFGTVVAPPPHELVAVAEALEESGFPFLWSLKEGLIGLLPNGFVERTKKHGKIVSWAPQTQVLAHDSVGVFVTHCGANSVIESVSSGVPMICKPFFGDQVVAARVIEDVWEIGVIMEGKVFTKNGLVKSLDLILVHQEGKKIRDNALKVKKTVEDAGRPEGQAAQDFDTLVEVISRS

[2] = target: T2, OMT5 (Glycine max, UniProt F2YBA9); test: HPLC-DAD and HPLC-MS/MS product detection; type: biochemical; conditions: methyl acceptor; SAM 100 uM, MgCl2 150 uM, Tris pH 7.5, 35 °C, 1 h; product peonidin-3-O-glucoside
T2 construct: full-length CDS, N-terminal His6 tag (pET-14b), E. coli BL21(DE3) pLysS, IMAC purified; primers based on mRNA BT098523
T2 sequence (F2YBA9 1-248): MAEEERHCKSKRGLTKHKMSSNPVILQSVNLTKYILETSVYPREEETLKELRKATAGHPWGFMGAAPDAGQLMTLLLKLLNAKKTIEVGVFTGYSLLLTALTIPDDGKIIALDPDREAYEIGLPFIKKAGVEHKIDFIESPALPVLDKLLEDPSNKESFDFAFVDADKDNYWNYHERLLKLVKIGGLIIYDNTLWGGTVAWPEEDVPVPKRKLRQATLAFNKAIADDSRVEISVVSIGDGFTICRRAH

Structure (SMILES) | HPLC-DAD and HPLC-MS/MS product detection [1] | HPLC-DAD and HPLC-MS/MS product detection [2]
Oc1cc(O)c2cc(O)c(-c3ccc(O)c(O)c3)[o+]c2c1 [cyanidin] | the recombinant enzyme transferred glucose to the 3-position of cyanidin to form cyanidin-3-O-glucoside | –
OC[C@H]1O[C@@H](Oc2cc3c(O)cc(O)cc3[o+]c2-c2ccc(O)c(O)c2)[C@H](O)[C@@H](O)[C@@H]1O [cyanidin-3-O-glucoside] | – | methyl donor and cyanidin-3-O-glucoside as the acceptor, the recombinant enzyme transferred a methyl group
